Experimental data from patent US12037329B2, “SphK inhibitors and methods of making and using same” (Washington University, priority 2021, dated 2024).
Entries after “also recorded” stand apart in the source; their conditions may differ. Structures can show the parent of a compound that is named as a salt.

Biological target: SphK2 (Homo sapiens (Human), UniProt Q9NRA0)
Assay: ADP-Glo kinase assay, SphK2
Assay type: biochemical
Conditions: for selectivity/specificity for SphK2 over SphK1: 125 μM of each compound, SphK2 versus SphK1, FIG. 5; for IC50: ADP-Glo assay, 50 μM ATP, recombinant human SphK2
From the text: The bioluminescence-based kinase assay such as ADP-Glo assay measures ADP formed from a kinase reaction with a luciferase. Upon the completion of a kinase reaction, the remaining ATP is depleted, the ADP produced in the kinase reaction is then converted to ATP and the detection is based on a sensitive and robust bioluminescence reaction. It has a broad linear range of ATP concentrations and high dynamic range. To determine the inhibition activity of the compounds, the ADP-Glo kinase assay was used which was able to detect down to 20% of 1 μM ATP to ADP conversion (FIG. 4A).
ADP-Glo (Promega, Madison, WI) kinase assay were used to evaluate the kinase activity of SphK. ATP to ADP standard curves were prepared in the kinase buffer to assess the linearity of the assay in order to calculate the amount of ADP produced in each tested conditions (FIG. 4A). SB10 (tenfold signal to background ra-tio) of SphK was also determined to evaluate the enzyme perfor-mance and to optimize the kinase reaction condition in this system. In brief, for SphK2, […], 100 μM of D-erythro-Sphingosine (Tocris Bioscience, Minneapolis, MN), and 2 ng of recombinant human SphK2 (R&D Systems, Minneapolis, MN) with desired concentration of each synthesized compound were used for SphK2 kinase reaction. For SphK1, exact same reaction condition was used except 0.5 ng of recombinant human SphK1 was used.
To evaluate the SphK selectivity of each compound, 125 μM of each compound in reaction buffer ([…] Tris, pH 8.0, […] MgCl2, and 0.1 mg/mL BSA) with 5% DMSO was incubated with either SphK1 or SphK2 in a 384-well solid white low volume microplate (Corning, Corning, NY), and the reaction was initiated by adding mixture of ATP and D-erythro-Sphingosine to a total volume of 5 μL, after 1 h incubation at room temperature with gentle shaking, the reaction was stopped by adding equal volume of ADP-Glo buffer and incubated for another hour to remove excess amount of ATP from the reaction. Afterwards, 10 μL of kinase detection reagent was added, mixed, and incubated for 30 min under dark. Luminescence output was recorded using a SpectraMax M5 Multi-Mode Microplate Readers (Molecular Devices, San Jose, CA), an integration time of 500 ms was used. All reactions were performed in triplicate. The enzyme activity of SphK in the presence of each compound was normalized to the no treatment control. […] The final data was calculated using Prism 7.0 (GraphPad Software, La Jolla, CA), IC50 was determined using Nonlinear regression (curve fit) four parameters dose-response calculations.

SphK2, sequence (Q9NRA0 whole entry): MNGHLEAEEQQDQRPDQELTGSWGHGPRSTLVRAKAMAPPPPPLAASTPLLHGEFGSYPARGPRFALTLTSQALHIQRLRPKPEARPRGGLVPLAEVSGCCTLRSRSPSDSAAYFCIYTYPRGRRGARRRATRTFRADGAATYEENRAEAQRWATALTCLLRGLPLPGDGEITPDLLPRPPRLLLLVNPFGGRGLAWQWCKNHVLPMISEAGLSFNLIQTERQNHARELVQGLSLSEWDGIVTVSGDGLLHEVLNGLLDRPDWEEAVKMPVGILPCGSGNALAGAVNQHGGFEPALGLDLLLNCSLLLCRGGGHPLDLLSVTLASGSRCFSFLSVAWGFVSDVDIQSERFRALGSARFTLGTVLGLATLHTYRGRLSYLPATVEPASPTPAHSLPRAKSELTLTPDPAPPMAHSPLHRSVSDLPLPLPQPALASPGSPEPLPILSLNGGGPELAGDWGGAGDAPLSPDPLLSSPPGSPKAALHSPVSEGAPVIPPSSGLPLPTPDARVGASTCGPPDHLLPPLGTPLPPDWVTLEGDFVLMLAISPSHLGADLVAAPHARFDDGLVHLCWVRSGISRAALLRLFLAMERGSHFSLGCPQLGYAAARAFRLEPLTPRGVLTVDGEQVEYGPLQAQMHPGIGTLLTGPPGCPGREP

Cl.N=C(N)N1CCC[C@H]1Cc1nc(-c2ccc(Cn3cc(-c4ccccn4)nn3)cc2)no1 [Compound 21c, (S)-2-((3-(4-((4-(Pyridin-2-yl)-1H-1,2,3-triazol-1-yl)methyl)phenyl)-1,2,4-oxadiazol-5-yl)methyl)pyrrolidine-1-carboximidamide hydrochloride]
selectivity/specificity for SphK2 over SphK1 (hydrochloride): high selectivity; also recorded: highest specificity
IC50: 452 nM

CCCCc1cn(Cc2ccc(-c3noc(C[C@@H]4CCCN4C(=N)N)n3)cc2)nn1.Cl [Compound 21d, (S)-2-((3-(4-((4-Butyl-1H-1,2,3-triazol-1-yl)methyl)phenyl)-1,2,4-oxadiazol-5-yl)methyl)pyrrolidine-1-carboximidamide hydrochloride]
SphK2 inhibitory activity (in words): no inhibitory activity
selectivity/specificity for SphK2 over SphK1 (hydrochloride): lowest specificity; also recorded: no selectivity

Cl.N=C(N)N1CCC[C@H]1Cc1nc(-c2ccc(Cn3cc(C4CC4)nn3)cc2)no1 [Compound 21f, (S)-2-((3-(4-((4-Cyclopropyl-1H-1,2,3-triazol-1-yl)methyl)phenyl)-1,2,4-oxadiazol-5-yl)methyl)pyrrolidine-1-carboximidamide hydrochloride]
SphK2 inhibitory activity (in words): no inhibitory activity
selectivity/specificity for SphK2 over SphK1 (hydrochloride): lowest specificity; also recorded: no selectivity

Cl.Cn1cc(-c2cn(Cc3ccc(-c4noc(C[C@@H]5CCCN5C(=N)N)n4)cc3)nn2)cn1 [Compound 21g, (S)-2-((3-(4-((4-(1-Methyl-1H-pyrazol-4-yl)-1H-1,2,3-triazol-1-yl)methyl)phenyl)-1,2,4-oxadiazol-5-yl)methyl)pyrrolidine-1-carboximidamide hydrochloride]
selectivity/specificity for SphK2 over SphK1 (hydrochloride): high selectivity; also recorded: highest specificity
IC50: 234 nM

Cl.N=C(N)N1CCC[C@H]1c1nc(-c2ccc(Cn3cc(-c4ccccn4)nn3)cc2)no1 [Compound 25c, (S)-2-(3-(4-((4-(Pyridin-2-yl)-1H-1,2,3-triazol-1-yl)methyl)phenyl)-1,2,4-oxadiazol-5-yl)pyrrolidine-1-carboximidamide hydrochloride]
selectivity/specificity for SphK2 over SphK1: lowest specificity
IC50 (hydrochloride): 900 nM

N=C(N)N1CCC[C@H]1c1nc(-c2ccc(Cn3cc(-c4cccs4)nn3)cc2)no1 [Compound 25e, (S)-2-((3-(4-((4-(Thiophen-2-yl)-1H-1,2,3-triazol-1-yl)methyl)phenyl)-1,2,4-oxadiazol-5-yl)-pyrrolidine-1-carboximidamide hydrochloride]
IC50: 687 nM

CCCCc1cn(Cc2ccc(-c3noc([C@@H]4CCCN4C(=N)N)n3)cc2)nn1.Cl [Compound 25f, (S)-2-((3-(4-((4-Butyl-1H-1,2,3-triazol-1-yl)methyl)phenyl)-1,2,4-oxadiazol-5-yl)pyrrolidine-1-carboximidamide hydrochloride]
IC50: 254 nM

CCCCc1cn(Cc2ccc(-c3noc([C@@H]4CCCN4C(=N)N)n3)cc2)nn1.Cl [Compound 25f]
selectivity/specificity for SphK2 over SphK1: high selective

N=C(N)N1CCC[C@H]1c1nc(-c2ccc(Cn3cc(-c4ccc(F)cc4)nn3)cc2)no1 [Compound 25g, (S)-2-((3-(4-((4-(4-Fluorophenyl)-1H-1,2,3-triazol-1-yl)methyl)phenyl)-1,2,4-oxadiazol-5-yl)-pyrrolidine-1-carboximidamide hydrochloride]
IC50: 391 nM

Cl.N=C(N)N1CCC[C@H]1c1nc(-c2ccc(Cn3cc(C4CC4)nn3)cc2)no1 [Compound 25h, (S)-2-((3-(4-((4-Cyclopropyl-1H-1,2,3-triazol-1-yl)methyl)phenyl)-1,2,4-oxadiazol-5-yl)pyrrolidine-1-carboximidamide hydrochloride]
IC50: 248 nM

Cl.N=C(N)N1CCC[C@H]1c1nc(-c2ccc(Cn3cc(C4CC4)nn3)cc2)no1 [Compound 25h]
selectivity/specificity for SphK2 over SphK1: high selective
